Assay results from US6653309B1, “Inhibitors of IMPDH enzyme technical field of the invention” (Vertex Pharmaceuticals Incorporated, priority 1999, dated 2003).

The compounds below were run against IMPDH human type II (Homo sapiens, UniProt P12268) (assay: IMPDH Activity Inhibition Assay). Settings: spectrophotometric NADH formation at 340 nm, 37° C., tight-binding equation of Henderson.
Format: biochemical
Description: IMP dehydrogenase activity was assayed following an adaptation of the method first reported by Magasanik. [B. Magasanik et al., J. Biod. Chem., 226, p. 339 (1957), the disclosure of which is herein incorporated by reference]. Enzyme activity was measured spectrophotometrically, by monitoring the increase in absorbance at 340 nm due to the formation of NADH (ε340 is 6220 M^−1 cm^−1). The reaction mixture contained 0.1 M Tris pH 8.0, 0.1 M KCl, 3 mM EDTA, 2 mM DTT, […] and enzyme (IMPDH human type II) at a concentration of 15 to 50 nM. This solution is incubated at 37° C. for 10 minutes. The reaction is started by adding NAD to a final concentration of […] and the initial rate is measured by following the linear increase in absorbance at 340 nm for 10 minutes. For reading in a standard spectrophotometer (path length 1 cm) the final volume in the cuvette is 1.0 ml. The assay has also been adapted to a 96 well microtiter plate format; in this case the concentrations of all the reagents remain the same and the final volume is decreased to 200 μl.
For the analysis of inhibitors, the compound in question is dissolved in DMSO to a final concentration of 20 mM and added to the initial assay mixture for preincubation with the enzyme at a final volume of 2-5% (v/v). The reaction is started by the addition of NAD, and the initial rates measured as above. Ki determinations are made by measuring the initial, velocities in the presence of varying amounts of inhibitor and fitting the data using the tight-binding equation of Henderson (Henderson, P. J. F. (1972) Biochem. J. 127, 321].

Row | Structure (SMILES) | Ki
1 | COc1ccccc1NS(=O)(=O)c1cc(Cl)cc(Cl)c1O [Compound 321] | 10 to 20 µM
2 | COc1cc(NC(=O)Oc2cccc(CNC(=O)O[C@H]3CCOC3)c2)ccc1-c1cnco1 [Compound 326] | < 10 µM
3 | O=C(Nc1cccc(F)c1)c1cc2ccccc2cc1O [Compound 163] | 10 to 20 µM
4 | N#Cc1cccc(NC(=O)c2cc3ccccc3cc2O)c1 [Compound 145] | 10 to 20 µM
5 | COc1ccccc1N(C)Cc1cc2cc(Br)ccc2cc1O [Compound 151] | < 10 µM
6 | COc1cc(NC(=O)c2cccc(CCNC(=O)O[C@H]3CCOC3)c2)ccc1-c1cnco1 [Compound 109] | < 10 µM
7 | CSc1cccc(NC(=O)c2cc3ccccc3cc2O)c1 [Compound 173] | 10 to 20 µM
8 | O=C(Nc1ccc(F)cc1)c1cc2ccccc2cc1O [Compound 166] | 10 to 20 µM
9 | O=C(Nc1ccccc1Oc1ccccc1)c1ccc2ccccc2c1O [Compound 193] | 10 to 20 µM
10 | COc1ccc(OC)c(S(=O)(=O)NCc2c(F)cccc2Cl)c1 [Compound 314] | 10 to 20 µM
11 | COc1ccccc1S(=O)(=O)Nc1ccccc1O [Compound 324] | 10 to 20 µM
12 | COc1ccc(C(N)=O)cc1NC(=O)c1cc2ccccc2cc1O [Compound 165] | 10 to 20 µM
13 | COc1cccc(NC(=O)c2cc3ccccc3cc2O)c1 [Compound 119] | > 20 µM
14 | COc1ccccc1NC(=O)c1ccccc1 [Compound 133] | 10 to 20 µM
15 | O=C(Nc1ccc(Br)cc1)c1cc2ccccc2cc1O [Compound 131] | 10 to 20 µM
16 | COc1ccc(NC(=O)c2cc3ccccc3cc2O)c(OC)c1 [Compound 186] | 10 to 20 µM
17 | COc1ccc(-c2ccccc2)cc1NC(=O)c1cc2ccccc2cc1O [Compound 154] | 10 to 20 µM
18 | COc1ccccc1N(C)C(=O)c1cc2cc(Br)ccc2cc1O [Compound 149] | 10 to 20 µM
19 | COc1ccccc1C(=O)Nc1ccccc1O [Compound 195] | 10 to 20 µM
20 | COc1ccc(OC)c(S(=O)(=O)Nc2ccccc2Cl)c1 [Compound 315] | 10 to 20 µM
21 | COc1ccc(OC)c(S(=O)(=O)Nc2cccc(C#N)c2)c1 [Compound 309] | 10 to 20 µM
22 | COc1ccccc1NC(=O)c1cc2ccccc2cc1OC(=O)C(C)(C)C [Compound 112] | 10 to 20 µM
23 | O=C(Nc1ccc(Cl)cc1)c1cc2ccccc2cc1O [Compound 161] | < 10 µM

Row | Structure (SMILES) | Ki
24 | COc1ccc(Br)cc1S(=O)(=O)Oc1cc2ccccc2cc1N [Compound 318] | 10 to 20 µM
25 | COc1ccc(C(C)(C)C)cc1NC(=O)c1cc2ccccc2cc1O [Compound 177] | 10 to 20 µM
26 | COc1ccc(OC)c(S(=O)(=O)Nc2cccc(Br)c2)c1 [Compound 313] | 10 to 20 µM
27 | O=C(Nc1cccc(C(F)(F)F)c1)c1cc2ccccc2cc1O [Compound 123] | < 10 µM
28 | COc1cccc(OC)c1S(=O)(=O)Nc1ccc(C(C)(C)C)cc1 [Compound 311] | 10 to 20 µM
29 | O=C(Nc1cccnc1)c1cc2ccccc2cc1O [Compound 304] | > 20 µM
30 | CCOc1ccccc1NC(=O)c1cc2ccccc2cc1O [Compound 167] | 10 to 20 µM
31 | COc1ccc(C)cc1NC(=O)c1ccc2ccccc2c1O [Compound 191] | > 20 µM
32 | COc1cc(NC(=O)c2cccc(CNC(=O)O[C@H]3CCOC3)c2)ccc1-c1cnco1 [Compound 102] | < 10 µM
33 | COc1ccccc1NC(=O)c1ccc(C)cc1O [Compound 197] | > 20 µM
34 | O=C(Nc1ccc(C(F)(F)F)cc1)c1cc2ccccc2cc1O [Compound 124] | < 10 µM
35 | COc1ccc(C)cc1NC(=O)c1cc2ccccc2cc1O [Compound 178] | < 10 µM
36 | COc1cccc(NC(=O)c2cc3ccccc3cc2O)c1OC [Compound 184] | 10 to 20 µM
37 | COc1ccc(OC)c(S(=O)(=O)Nc2ccc([N+](=O)[O-])cc2)c1 [Compound 308] | 10 to 20 µM
38 | O=C(Nc1ccccc1Oc1ccccc1)c1cc(Br)ccc1O [Compound 204] | > 20 µM
39 | COc1ccccc1NS(=O)(=O)c1ccc2ccccc2c1 [Compound 302] | 10 to 20 µM
40 | O=C(Nc1ccc(Oc2ccccc2)cc1)c1cc2ccccc2cc1O [Compound 185] | < 10 µM
41 | COc1cc(Cl)ccc1NC(=O)Sc1ccccc1O [Compound 305] | < 10 µM
42 | CSc1ccccc1NC(=O)c1cc2ccccc2cc1O [Compound 169] | < 10 µM
43 | Cc1ccc(NC(=O)c2cc3ccccc3cc2O)cc1 [Compound 121] | 10 to 20 µM
44 | COc1ccccc1NC(=O)c1cc(Br)ccc1O [Compound 201] | 10 to 20 µM
45 | COc1ccc(OC)c(S(=O)(=O)Nc2cccc(Cl)c2)c1 [Compound 320] | 10 to 20 µM
46 | O=C(Nc1ccccc1OC(F)(F)F)c1cc2ccccc2cc1O [Compound 135] | 10 to 20 µM

Row | Structure (SMILES) | Ki
47 | COc1ccc(OC)c(S(=O)(=O)Nc2ccccc2[N+](=O)[O-])c1 [Compound 317] | 10 to 20 µM
48 | CCS(=O)(=O)c1ccc(OC)c(NC(=O)c2cc3ccccc3cc2O)c1 [Compound 159] | 10 to 20 µM
49 | COc1cc(OC)c(NC(=O)c2cc3ccccc3cc2O)cc1Cl [Compound 171] | 10 to 20 µM
50 | COc1ccccc1C(=O)Nc1ccccc1Oc1ccccc1 [Compound 196] | 10 to 20 µM
51 | COc1ccc(C)cc1NC(=O)c1ccccc1OC [Compound 194] | > 20 µM
52 | C=CCOc1cc2ccc(Br)cc2cc1C(=O)Nc1ccccc1OC [Compound 140] | < 10 µM
53 | O=[N+]([O-])c1cccc(S(=O)(=O)Nc2ccc(-c3cnco3)cc2)c1 [Compound 300] | 10 to 20 µM
54 | O=C(Nc1ccc(OC(F)(F)F)cc1)c1cc2ccccc2cc1O [Compound 136] | 10 to 20 µM
55 | O=C(Nc1ccccc1O)c1cc(Br)ccc1O [Compound 203] | > 20 µM
56 | COc1ccccc1NCc1cc2cc(Br)ccc2cc1O [Compound 115] | < 10 µM
57 | O=C(Nc1cccc(Br)c1)c1cc2ccccc2cc1O [Compound 130] | 10 to 20 µM
58 | COc1ccc(Br)cc1S(=O)(=O)Nc1cc2ccccc2cc1O [Compound 319] | 10 to 20 µM
59 | COc1ccccc1N(C)C(=O)c1cc2ccccc2cc1O [Compound 105] | 10 to 20 µM
60 | COc1ccc(OC)c(S(=O)(=O)Nc2ccccc2C#N)c1 [Compound 312] | 10 to 20 µM
61 | CCCCC(=O)Oc1cc2ccccc2cc1C(=O)Nc1ccccc1OC [Compound 148] | 10 to 20 µM
62 | COc1ccccc1NC(=O)c1cc2ccccc2cc1O [Compound 100] | < 10 µM
63 | COc1ccc(NC(=O)c2cc3ccccc3cc2O)cc1 [Compound 120] | 10 to 20 µM
64 | COc1ccccc1C(=O)Nc1cc2ccccc2cc1OC(=O)c1ccccc1OC [Compound 138] | < 10 µM
65 | CCC(=O)Oc1cc2ccc(Br)cc2cc1C(=O)Nc1ccccc1OC [Compound 127] | < 10 µM
66 | O=C(Nc1ccc(F)cc1)Sc1ccccc1O [Compound 303] | > 20 µM
67 | COc1ccccc1NC(=O)c1cc2cc(Br)ccc2cc1OCc1ccccc1 [Compound 141] | < 10 µM
68 | COc1ccc(C)cc1NC(=O)c1ccc(C)cc1O [Compound 198] | > 20 µM
69 | COc1ccccc1NC(=O)c1ccccc1O [Compound 147] | < 10 µM

Row | Structure (SMILES) | Ki
70 | Cc1ccccc1NC(=O)c1cc2ccccc2cc1O [Compound 132] | 10 to 20 µM
71 | COc1ccccc1NC(=O)c1cccc(-c2ccccc2)c1O [Compound 152] | 10 to 20 µM
72 | COc1ccccc1NC(=O)c1cc2ccccc2cc1N [Compound 142] | 10 to 20 µM
73 | CCCC(=O)Oc1cc2ccccc2cc1C(=O)Nc1ccc(C#N)c(OC)c1 [Compound 113] | < 10 µM
74 | CCCC(=O)Oc1cc2ccccc2cc1C(=O)Nc1ccc(OC)cc1 [Compound 117] | > 20 µM
75 | Cc1ccc(C(=O)Nc2ccccc2Oc2ccccc2)c(O)c1 [Compound 200] | 10 to 20 µM
76 | COc1ccc(Br)cc1S(=O)(=O)Nc1ccccc1O [Compound 323] | 10 to 20 µM
77 | O=C(Nc1ccccc1Oc1ccccc1)c1cc2ccccc2cc1O [Compound 183] | < 10 µM
78 | COc1ccccc1NC(=O)c1ccccc1OC [Compound 108] | 10 to 20 µM
79 | COc1cc(NC(=O)c2cc3ccccc3cc2O)cc(OC)c1 [Compound 188] | 10 to 20 µM
80 | O=C(Nc1cccc(Cl)c1)c1cc2ccccc2cc1O [Compound 156] | 10 to 20 µM
81 | CCCC(=O)Oc1cc2ccccc2cc1C(=O)Nc1ccc(C)cc1 [Compound 118] | 10 to 20 µM
82 | COc1ccc(C(F)(F)F)cc1NC(=O)c1cc2ccccc2cc1O [Compound 180] | 10 to 20 µM
83 | COc1ccccc1N(Cc1ccccc1)C(=O)c1cc2ccccc2cc1O [Compound 107] | 10 to 20 µM
84 | O=C(Nc1ccccc1Br)c1cc2ccccc2cc1O [Compound 129] | 10 to 20 µM
85 | COc1ccc(OC)c(NC(=O)c2cc3ccccc3cc2O)c1 [Compound 179] | 10 to 20 µM
86 | COc1ccc(C)cc1NC(=O)c1cc(Br)ccc1O [Compound 202] | > 20 µM
87 | O=C(Nc1ccccc1C(F)(F)F)c1cc2ccccc2cc1O [Compound 128] | 10 to 20 µM
88 | CCCC(=O)Oc1cc2ccccc2cc1C(=O)Nc1ccccc1OC [Compound 101] | 10 to 20 µM
89 | COc1ccc(C)cc1NC(=O)Sc1ccccc1O [Compound 306] | 10 to 20 µM
